Molecules are shown by their SMILES. pKi: −log10 of the molar value.

The values below come from patent US7943619B2, “Isoxazolo-pyridazine derivatives” (priority 2007, dated 2011).

Sequence of human GABA A receptor α5β3γ2 (α5 subunit) (P31644 32-462): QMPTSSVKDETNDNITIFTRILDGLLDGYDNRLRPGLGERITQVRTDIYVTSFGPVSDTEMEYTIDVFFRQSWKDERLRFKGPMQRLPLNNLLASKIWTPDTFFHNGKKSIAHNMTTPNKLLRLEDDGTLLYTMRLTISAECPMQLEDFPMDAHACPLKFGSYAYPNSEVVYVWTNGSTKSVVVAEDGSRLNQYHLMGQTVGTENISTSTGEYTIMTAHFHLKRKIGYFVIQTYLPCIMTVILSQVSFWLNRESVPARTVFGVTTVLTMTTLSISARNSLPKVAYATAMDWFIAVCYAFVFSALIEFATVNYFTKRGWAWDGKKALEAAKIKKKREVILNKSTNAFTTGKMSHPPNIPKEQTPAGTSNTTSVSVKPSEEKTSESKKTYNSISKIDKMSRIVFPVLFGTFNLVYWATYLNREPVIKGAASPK
Sequence of human GABA A receptor α5β3γ2 (α5 subunit) (P28472 26-473 partner): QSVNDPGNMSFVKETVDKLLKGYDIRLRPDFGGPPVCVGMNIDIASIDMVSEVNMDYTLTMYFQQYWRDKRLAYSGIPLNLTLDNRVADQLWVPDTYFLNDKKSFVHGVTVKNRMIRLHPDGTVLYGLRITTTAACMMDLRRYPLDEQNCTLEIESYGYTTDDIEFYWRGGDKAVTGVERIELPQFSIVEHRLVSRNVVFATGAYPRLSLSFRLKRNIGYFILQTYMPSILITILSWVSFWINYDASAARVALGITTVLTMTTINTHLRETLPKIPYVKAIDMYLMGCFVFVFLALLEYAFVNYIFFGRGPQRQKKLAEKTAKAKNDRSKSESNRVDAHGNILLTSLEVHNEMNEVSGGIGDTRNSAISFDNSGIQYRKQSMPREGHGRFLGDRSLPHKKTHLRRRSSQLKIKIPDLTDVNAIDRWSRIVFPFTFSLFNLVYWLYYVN
Sequence of human GABA A receptor α5β3γ2 (α5 subunit) (P18507 40-475): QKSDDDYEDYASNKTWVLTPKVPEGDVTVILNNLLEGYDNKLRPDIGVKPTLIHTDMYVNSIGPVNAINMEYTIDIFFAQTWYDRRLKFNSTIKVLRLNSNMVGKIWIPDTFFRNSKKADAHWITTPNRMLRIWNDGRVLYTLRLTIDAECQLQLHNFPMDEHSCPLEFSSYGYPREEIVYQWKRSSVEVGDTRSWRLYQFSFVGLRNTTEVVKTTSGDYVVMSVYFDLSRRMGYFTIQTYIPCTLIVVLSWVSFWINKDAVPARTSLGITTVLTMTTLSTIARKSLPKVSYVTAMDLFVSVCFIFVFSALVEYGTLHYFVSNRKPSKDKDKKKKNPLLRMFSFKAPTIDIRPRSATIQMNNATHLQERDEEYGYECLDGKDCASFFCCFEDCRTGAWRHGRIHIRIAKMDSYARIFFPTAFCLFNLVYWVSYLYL

This assay addresses human GABA A receptor α5β3γ2 (α5 subunit) (Homo sapiens, UniProt P18507+P31644). The assay can be described thus: biochemical. It counts as binding. As to conditions: competition for [3H]flumazenil binding, HEK293 cells transiently expressing human receptors; means of two determinations; read-out: hKi. The protocol:
The affinity of compounds at GABA A receptor subtypes was measured by competition for [3H]flumazenil (85 Ci/mmol; Roche) binding to HEK293 cells expressing rat (stably transfected) or human (transiently transfected) receptors of composition α1β3γ2, α2β3γ2, α3β3γ2 and α5β3γ2.
Cell pellets were suspended in Krebs-tris buffer (4.8 mM KCl, 1.2 mM CaCl2, 1.2 mM MgCl2, 120 mM NaCl, 15 mM Tris; pH 7.5; binding assay buffer), homogenized by polytron for ca. 20 sec on ice and centrifuged for 60 min at 4° C. (50000 g; Sorvall, rotor: SM24=20000 rpm). The cell pellets were resuspended in Krebs-tris buffer and homogenized by polytron for ca. 15 sec on ice. Protein was measured (Bradford method, Bio-Rad) and aliquots of 1 mL were prepared and stored at −80° C.
Assays were incubated to equilibrium for 1 hour at 4° C. and harvested onto GF/C uni-filters (Packard) by filtration using a Packard harvester and washing with ice-cold wash buffer (50 mM Tris; pH 7.5). After drying, filter-retained radioactivity was detected by liquid scintillation counting. Ki values were calculated using Excel-Fit (Microsoft) and are the means of two determinations.
For `Cc1onc(-c2ccccn2)c1COc1ccc(C(=O)NC2CC2)nn1` [Example 97, 6-(5-Methyl-3-pyridin-2-yl-isoxazol-4-ylmethoxy)-pyridazine-3-carboxylic acid cyclopropylamide], the pKi is 8.80.
Take `Cc1onc(-c2ccc(F)cc2)c1COc1ccc(C(=O)N2CCS(=O)(=O)CC2)nn1` [Example 66, (1,1-Dioxo-1λ6-thiomorpholin-4-yl)-{6-[3-(4-fluoro-phenyl)-5-methyl-isoxazol-4-ylmethoxy]-pyridazin-3-yl}-methanone]: the pKi is 7.93.
As for `CNC(=O)c1ccc(OCc2c(-c3cccc(F)c3)noc2C)nn1` [Example 50, 6-[3-(3-Fluoro-phenyl)-5-methyl-isoxazol-4-ylmethoxy]-pyridazine-3-carboxylic acid methylamide], the figure is 8.39; as for `Cc1onc(-c2ccc(F)cc2)c1COc1ccc(Cl)nn1` [Example 57, 3-Chloro-6-[3-(4-fluoro-phenyl)-5-methyl-isoxazol-4-ylmethoxy]-pyridazine], 8.34.
The result for `CCOC(=O)Nc1ccc(OCc2c(-c3ccccc3)noc2C)nn1` [Example 34, [6-(5-Methyl-3-phenyl-isoxazol-4-ylmethoxy)-pyridazin-3-yl]-carbamic acid ethyl ester] reads 8.07; that for `Cc1onc(-c2ccccc2)c1COc1ccc(NC(=O)c2ccco2)nn1` [Example 32, Furan-2-carboxylic acid [6-(5-methyl-3-phenyl-isoxazol-4-ylmethoxy)-pyridazin-3-yl]-amide], 8.16.
As for `Cc1onc(-c2ccccn2)c1COc1ccc(C(=O)NCCO)nn1` [Example 101, 6-(5-Methyl-3-pyridin-2-yl-isoxazol-4-ylmethoxy)-pyridazine-3-carboxylic acid (2-hydroxy-ethyl)-amide], the figure is 8.85.
As for `Cc1onc(-c2ccccc2)c1COc1ccc2nncn2n1` [Example 86, 6-(5-Methyl-3-phenyl-isoxazol-4-ylmethoxy)-[1,2,4]triazolo[4,3-b]pyridazine], the pKi is 8.18.
Take `Cc1onc(-c2ccccc2)c1COc1ccc(C(=O)NC2CC2)nn1` [Example 8, 6-(5-Methyl-3-phenyl-isoxazol-4-ylmethoxy)-pyridazine-3-carboxylic acid cyclopropylamide]: the pKi was 8.46.
The result for `CNC(=O)c1ccc(OCc2c(-c3ccncc3)noc2C)nn1` [Example 108, 6-(5-Methyl-3-pyridin-4-yl-isoxazol-4-ylmethoxy)-pyridazine-3-carboxylic acid methylamide] reads 8.05.
As for `CCOC(=O)c1ccc(OCc2c(-c3ccc(F)cn3)noc2C)nn1` [Example 111, 6-[3-(5-Fluoro-pyridin-2-yl)-5-methyl-isoxazol-4-ylmethoxy]-pyridazine-3-carboxylic acid ethyl ester], the figure is 8.92.
As for `Cc1onc(-c2ccccc2)c1COc1ccc(N2CCOCC2)nn1` [Example 36, 4-[6-(5-Methyl-3-phenyl-isoxazol-4-ylmethoxy)-pyridazin-3-yl]-morpholine], the figure is 8.03; as for `Cc1onc(-c2ccc(F)cc2)c1COc1ccc(C(=O)NCC(F)(F)F)nn1` [Example 60, 6-[3-(4-Fluoro-phenyl)-5-methyl-isoxazol-4-ylmethoxy]-pyridazine-3-carboxylic acid (2,2,2-trifluoro-ethyl)-amide], 8.46; as for `Cc1onc(-c2ccccn2)c1COc1ccc(C(=O)NC(C)(C)CO)nn1` [Example 105, 6-(5-Methyl-3-pyridin-2-yl-isoxazol-4-ylmethoxy)-pyridazine-3-carboxylic acid (2-hydroxy-1,1-dimethyl-ethyl)-amide], 8.40.
